Experimental data as given in publication PMC3465557, “Mixed antagonistic effects of the ginkgolides at recombinant human ρ1 GABAC receptors” (Neuropharmacology, 2012).

Legend:
Type in all cases: cell-based
[1] = target: T1, recombinant human ρ1 GABAC receptors (Homo sapiens, UniProt P24046); assay: GABA concentration–response curves in the presence and absence of ginkgolides, two-electrode voltage clamp in Xenopus oocytes; details: for type of antagonism: from GABA concentration–response and inhibition curves
T1 construct: expressed in transfected cells; host or cells: Xenopus laevis oocytes (cRNA injection)
T1 sequence (P24046 22-479): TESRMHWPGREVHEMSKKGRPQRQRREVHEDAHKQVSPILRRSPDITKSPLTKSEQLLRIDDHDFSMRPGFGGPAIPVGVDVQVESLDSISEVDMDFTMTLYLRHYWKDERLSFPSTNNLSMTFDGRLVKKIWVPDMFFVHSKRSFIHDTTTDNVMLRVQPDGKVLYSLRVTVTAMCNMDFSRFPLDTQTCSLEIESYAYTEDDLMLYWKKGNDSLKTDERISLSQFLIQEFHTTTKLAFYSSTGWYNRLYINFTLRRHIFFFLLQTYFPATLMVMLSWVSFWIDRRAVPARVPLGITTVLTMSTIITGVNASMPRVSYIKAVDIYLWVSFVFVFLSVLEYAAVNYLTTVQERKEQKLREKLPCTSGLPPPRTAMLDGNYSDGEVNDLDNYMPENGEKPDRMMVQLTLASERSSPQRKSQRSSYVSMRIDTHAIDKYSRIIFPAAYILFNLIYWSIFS
Description: (§1) Human ρ1 GABAC receptor subunit cDNA was linearized using the restriction enzyme Xba 1 and transcribed using the “mMESSAGE mMACHINE” kit (Ambion Inc., Austin, TX, USA). RNA (10 ng/50 nl) was injected into the cytoplasm of defollicated oocytes using a 15–20 μm diameter tip glass micropipette Nanoject injector (Drummond Scientific Co., Broomali, PA, USA). The oocytes were incubated for 2–7 days at 18 °C in ND96 buffer with a twice-daily change of buffer.
(§2) Whole-cell currents from homomeric ρ1 GABAC receptors expressed in oocytes were recorded using two-electrode voltage clamp. Recording microelectrodes were fabricated with a micropipette puller (Narishige Scientific Instrument Lab, Tokyo, Japan) and filled with 3 M KCl solution. Oocytes were clamped at −60 mV and continuously superfused with ND96 buffer. […] […]. Co-applications of ginkgolides were interleaved with test applications of GABA alone to monitor the response throughout the experiment. […] A washout period of 3–5 min was allowed between each application.
(§3) Analysis and curve fitting was performed using GraphPad Prism v3.02 (GraphPad Software, San Diego, California, USA). […] […]. […] Unless otherwise noted, parameters were calculated from individual oocytes and then averaged.

[2] = target: T1, recombinant human ρ1 GABAC receptors; assay: Inhibition curves: ginkgolides co-applied with a fixed GABA concentration, two-electrode voltage clamp in Xenopus oocytes
Description: as §1, §2, §3

[3] = target: T1, recombinant human ρ1 GABAC receptors; assay: Use-dependence: repeated co-applications with GABA during extended incubation of ginkgolide; details: for use-dependence: repeated co-applications
Description: as §2
Fig. 5 Use-dependent effect in the antagonism of ρ1 GABAC receptors by ginkgolides. A. Examples of currents recorded during repeated co-applications of GABA and ginkgolides. […] Each application was separated by a 3-min interval. […]. […] Overall, there was no obvious evidence for use-dependent inhibition by the ginkgolides.

[4] = target: T1, recombinant human ρ1 GABAC receptors; assay: Inhibition and recovery time when ginkgolide is co-applied during the plateau of the GABA-activated current
Description: as §2
The recovery time from inhibition (measured as the 10–90% rise interval) was determined from the current responses obtained when ginkgolides A, B and C were co-applied during the plateau of the GABA-activated current (Fig. 6). […].
Fig. 6 Recovery time from ginkgolide inhibition.

[5] = target: T1, recombinant human ρ1 GABAC receptors; assay: Fit of kinetic schemes 1-4 to equilibrium GABA concentration–response curves
Source text: The concentration–response curves were fitted with the different mechanisms of inhibition using a least squares non-linear regression in GraphPad Prism.
The mechanism used (Fig. 7, Scheme 1) is that of [Amin and Weiss (1996)], where there are five equivalent agonist binding sites and three sites need to be occupied to activate the receptor, leading to a single open state. […] This assumes five equivalent agonist binding sites but only three are required to be occupied to activate (open) the channel pore. All subsequent kinetic schemes are derivatives of the linear scheme, by incorporating different possible mechanisms for antagonism by ginkgolides. These are drawn from the cyclic mixed-antagonism mechanism described by [Smart and Constanti (1986)]. Scheme 2 and scheme 3 both assume that ginkgolide binds to a single site in the receptor complex. […] For scheme 4, the equilibrium between the fully-liganded closed and open states is removed, which allows for the possibility that the ginkgolide binds to a separate site in the closed state compared to the open state.
Initially, a cyclic allosteric mechanism (Fig. 7, scheme 2) similar to that of [Smart and Constanti (1986)] was fit to the data. This scheme assumes a single binding site on the receptor complex that has an allosteric effect on all rate constants in the reaction mechanism. The scheme was fitted to the data allowing the agonist equilibrium constant, Ka, to be related to the equilibrium constant in the presence of ginkgolide, Ka′ by a constant ratio, R = Ka/Ka′. Similarly, the opening equilibrium constants E and E′ were related by the ratio, S = E/E′. […] As a test of the mechanism, the parameters obtained from the fit were used to predict the inhibition curves (Fig. 8D–F).
This effectively means that ginkgolide is binding at two separate sites. […] Scheme 4 is therefore functionally similar to scheme 2 with E′ having a value close to zero.

[6] = Hill coefficient of GABA curve with 10 μM antagonist
[7] = Hill coefficient of GABA curve with 30 μM antagonist
[8] = Hill coefficient of GABA curve with 100 μM antagonist
[9] = in the presence of 10 μM ginkgolide
[10] = in the presence of 30 μM ginkgolide
[11] = in the presence of 100 μM ginkgolide

Molecule: C[C@@H]1C(=O)O[C@H]2C[C@@]34[C@H]5C[C@@H](C(C)(C)C)[C@]36[C@@H](OC(=O)[C@@H]6O)O[C@@]4(C(=O)O5)[C@]21O [Ginkgolide A, ginkgolide A]
- GABA + Ant nH [1, 6]: 1.98 ± 0.12
- GABA + Ant nH [1, 7]: 2.25 ± 0.04
- GABA + Ant nH [1, 8]: 2.60 ± 0.22
- type of antagonism [1]: mixed antagonists
- fold increase in the GABA EC50 [1, 9]: 1.9 fold
- fold increase in the GABA EC50 [1, 10]: 2.3 fold
- fold increase in the GABA EC50 [1, 11]: 2.5 fold
- Max. GABA response ([1]; with 10 μM antagonist): 94.78 ± 0.54 %
- Max. GABA response ([1]; with 30 μM antagonist): 91.44 ± 0.80 %
- Max. GABA response ([1]; with 100 μM antagonist): 85.66 ± 1.34 %
- nH of inhibition curve ([2]; 0.5 μM GABA): −0.99 ± 0.08
- nH of inhibition curve ([2]; 1.2 μM GABA): −0.82 ± 0.07
- nH of inhibition curve ([2]; 3.0 μM GABA): −0.61 ± 0.03
- nH of inhibition curve ([2]; 10 μM GABA): −0.73 ± 0.04
- IC50 ([2]; IC50, 0.5 μM GABA): 5.74 ± 0.17 µM
- IC50 ([2]; IC50, 1.2 μM GABA): 42.3 ± 5.76 µM
- IC50 ([2]; IC50, 3.0 μM GABA): 182 ± 12.6 µM
- IC50 ([2]; IC50, 10 μM GABA): 874 ± 108 µM
- use-dependence ([3]; 5 μM ginkgolide, 1 μM GABA): not obviously use-dependent
- inhibition at 5 µM ([3]; read-out: level of inhibition): 33.2 ± 1.4%
- Recovery time (10–90% rise interval) ([4]; 1 μM GABA, 5 μM ginkgolide): 48.4 ± 5.7 s
- inhibition at 5 µM ([4]; 1 μM GABA, 5 μM ginkgolide): 33.8 ± 3.4%
- Recovery time (10–90% rise interval) ([4]; 3 μM GABA, 5 μM ginkgolide): 14.3 ± 4.6 s
- inhibition at 5 µM ([4]; 3 μM GABA, 5 μM ginkgolide): 15.9 ± 1.6%
- Recovery time (10–90% rise interval) ([4]; 3 μM GABA, 50 μM ginkgolide): 18.4 ± 3.4 s
- inhibition at 50 µM ([4]; 3 μM GABA, 50 μM ginkgolide): 21.4 ± 1.9%
- Kd ([5]; Kb0, Scheme 2, calculated): 1.3 µM
- Kd ([5]; Kb0, Scheme 3, calculated): 1.5 µM
- Kd ([5]; Kb0, Scheme 4, calculated): 1.3 µM
- Kd ([5]; Kb3, Scheme 2, calculated): 7.7 µM
- Kd ([5]; Kb3, Scheme 3, calculated): 6790 µM
- Kd ([5]; Kb3, Scheme 4, printed with ±SE): 7.7 ± 1.4 µM
- Kd ([5]; Kb4 (equilibrium constant of ginkgolide, open state), Scheme 2, fitted, Ka fixed 3.2 μM, E fixed 11): 19.7 ± 3.9 µM
- Kd ([5]; Kb4 (equilibrium constant of ginkgolide, open state), Scheme 3, fitted, Ka fixed 3.2 μM, E fixed 11): 611 ± 89 µM
- Kd ([5]; Kb4 (equilibrium constant of ginkgolide, open state), Scheme 4, fitted, Ka fixed 3.2 μM, E fixed 11): 19.7 ± 3.9 µM
- E′ (opening equilibrium constant with ginkgolide bound) ([5]; Scheme 2, calculated): 4.3
- Ka′ (agonist equilibrium constant with ginkgolide bound) ([5]; Scheme 2, calculated): 5.7 µM
- R (= Ka/Ka′) ([5]; Scheme 2, fitted): 0.56 ± 0.03
- S (= E/E′) ([5]; Scheme 2, fitted): 2.6 ± 0.2
- E′ (opening equilibrium constant with ginkgolide bound) ([5]; Scheme 3, calculated): 122
- Ka′ (agonist equilibrium constant with ginkgolide bound) ([5]; Scheme 3, calculated): 53.3 µM
- R (= Ka/Ka′) ([5]; Scheme 3, fitted): 0.06 ± 0.05
- S (= E/E′) ([5]; Scheme 3, fitted): 0.09 ± 0.22
- Ka′ (agonist equilibrium constant with ginkgolide bound) ([5]; Scheme 4, calculated): 5.7 µM
- R (= Ka/Ka′) ([5]; Scheme 4, fitted): 0.55 ± 0.03

Molecule: ginkgolide B
- GABA + Ant nH [1, 6]: 1.97 ± 0.10
- GABA + Ant nH [1, 7]: 1.83 ± 0.06
- GABA + Ant nH [1, 8]: 1.61 ± 0.05
- type of antagonism [1]: mixed antagonists
- fold increase in the GABA EC50 [1, 9]: 3.2 fold
- fold increase in the GABA EC50 [1, 10]: 4.7 fold
- fold increase in the GABA EC50 [1, 11]: 7.5 fold
- Max. GABA response ([1]; with 10 μM antagonist): 80.65 ± 2.18 %
- Max. GABA response ([1]; with 30 μM antagonist): 75.12 ± 1.39 %
- Max. GABA response ([1]; with 100 μM antagonist): 69.56 ± 2.48 %
- fold more potent than ginkgolide A ([2]; 0.5 μM GABA): approximately 7.7 fold
- fold more potent than ginkgolide C ([2]; 0.5 μM GABA): ~1.1 fold
- nH of inhibition curve ([2]; 0.5 μM GABA): −0.87 ± 0.05
- fold more potent than ginkgolide A ([2]; 1.2 μM GABA): ~18 fold
- fold more potent than ginkgolide C ([2]; 1.2 μM GABA): ~2.3 fold
- nH of inhibition curve ([2]; 1.2 μM GABA): −0.97 ± 0.07
- fold more potent than ginkgolide A ([2]; 3 μM GABA): ~32 fold
- fold more potent than ginkgolide C ([2]; 3 μM GABA): ~3.8 fold
- nH of inhibition curve ([2]; 3.0 μM GABA): −0.78 ± 0.06
- fold more potent than ginkgolide A ([2]; 10 μM GABA): ~6.7 fold
- fold more potent than ginkgolide C ([2]; 10 μM GABA): ~4 fold
- nH of inhibition curve ([2]; 10 μM GABA): −0.83 ± 0.06
- bottom plateau of the inhibition curve ([2]; 10 μM GABA, five out of seven oocytes, up to 3 mM): approximately 30 % of Imax
- level of inhibition ([3]; 5 μM ginkgolide, 1 μM GABA, five co-applications after 40 s preincubation): 61.3 ± 1.7%
- use-dependence ([3]; 5 μM ginkgolide, 1 μM GABA): not obviously use-dependent
- Inhibition (%) ([4]; 1 μM GABA, 5 μM ginkgolide): 55.5 ± 3.4%
- Recovery time (10–90% rise interval) ([4]; 1 μM GABA, 5 μM ginkgolide): 42.8 ± 8.6 s
- Inhibition (%) ([4]; 3 μM GABA, 5 μM ginkgolide): 35.2 ± 6.8%
- Recovery time (10–90% rise interval) ([4]; 3 μM GABA, 5 μM ginkgolide): 21.3 ± 4.4 s
- Inhibition (%) ([4]; 3 μM GABA, 50 μM ginkgolide): 54.6 ± 7.5%
- Recovery time (10–90% rise interval) ([4]; 3 μM GABA, 50 μM ginkgolide): 29.4 ± 3.8 s
- E′ (opening equilibrium constant with ginkgolide bound) ([5]; Scheme 2, calculated): 1.3
- Ka′ (agonist equilibrium constant with ginkgolide bound) ([5]; Scheme 2, calculated): 8.3 µM
- R (= Ka/Ka′) ([5]; Scheme 2, fitted): 0.39 ± 0.02
- S (= E/E′) ([5]; Scheme 2, fitted): 8.6 ± 0.6
- E′ (opening equilibrium constant with ginkgolide bound) ([5]; Scheme 3, calculated): 1 × 10^−9
- Ka′ (agonist equilibrium constant with ginkgolide bound) ([5]; Scheme 3, calculated): 12.9 µM
- R (= Ka/Ka′) ([5]; Scheme 3, fitted): 0.25 ± 0.01
- S (= E/E′) ([5]; Scheme 3, fitted): 1.0 × 10^10 ± 1.4 × 10^16
- Ka′ (agonist equilibrium constant with ginkgolide bound) ([5]; Scheme 4, calculated): 8.3 µM
- R (= Ka/Ka′) ([5]; Scheme 4, fitted): 0.39 ± 0.02
